Test results published in publication PMC11314199, “Design, Synthesis, and Biological Evaluations of Novel Thiazolo[4,5-d]pyrimidine Corticotropin Releasing Factor (CRF) Receptor Antagonists as Potential Treatments for Stress Related Disorders and Congenital Adrenal Hyperplasia (CAH)” (Molecules, 2024).
Read-outs that look alike come from different tables or passages of the source.

Key:
human CRF1 receptors [1] = biological target: T1, human CRF1 receptors (Homo sapiens, UniProt P34998); assay: Primary screening: inhibition of specific [125I]-Tyr0 sauvagine binding at a single concentration of 100 nM; conditions: 100 nM test compound; membranes from HEK 293 cells stably expressing CRF1 receptors
T1 construct: expressed in transfected cells
T1 sequence (P34998 24-415): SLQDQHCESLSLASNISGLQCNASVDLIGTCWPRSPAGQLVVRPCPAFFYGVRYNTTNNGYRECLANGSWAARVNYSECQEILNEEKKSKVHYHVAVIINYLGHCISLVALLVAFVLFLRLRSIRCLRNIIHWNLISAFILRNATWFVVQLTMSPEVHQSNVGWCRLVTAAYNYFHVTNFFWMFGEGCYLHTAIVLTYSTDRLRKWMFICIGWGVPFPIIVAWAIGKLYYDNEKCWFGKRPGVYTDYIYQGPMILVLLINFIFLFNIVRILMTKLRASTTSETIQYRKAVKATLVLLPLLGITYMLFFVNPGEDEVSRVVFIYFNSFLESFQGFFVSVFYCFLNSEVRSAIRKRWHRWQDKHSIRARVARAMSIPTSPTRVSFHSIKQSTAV
Experimental: An investigation of the specific binding was carried out in membrane homogenates extracted from human embryonic kidney (HEK 293) cells stably expressing CRF1 receptors, a standard methodology previously detailed in several of our published works. This experimental approach closely adheres to the original Gkountelias et al. procedure.
The CRF1 receptor binding affinities for final target compounds 1–23 were evaluated. First, the ability of the entire test compounds to inhibit the specific binding of the radiolabelled ligand [^125I]-Tyr^0 sauvagine to membranes from HEK 293 cells stably expressing the CRF1 receptors was evaluated at a single concentration of 100 nM.
Figure 5 % inhibition of [^125I]-Try^0 sauvagine-specific binding by 100 nM of test compounds on membranes from HEK293 stably expressing human CRF1 receptors. In the absence of the test compound, the inhibition is 0%.
In this protocol, a radiolabeled agonist, which is [^125I]-Tyr^0-sauvagine is used. The cell culture medium that was used to grow these cells consisted of DMEM/F12 (1:1) supplemented with 10% bovine calf serum, 3.15 g/L glucose, and […] of the antibiotic geneticin. The cells were then incubated at a temperature of 37 °C with 5% CO2. After a suitable time was given to grow the expected number of cells to the required cell density, the cells were washed with phosphate-buffered saline (PBS) at a neutral pH of 7.2–7.3. This was followed by treatment with 2 mM EDTA containing PBS (PBS/EDTA). The suspension of cells was pitted under centrifugation at a speed of 1000× g for a period of 5 min, after which the resulting pellets were allowed to be homogenized in 1.5 mL of buffer H with the following composition: 20 mM HEPES, 10 mM MgCl2, 2 mM EGTA, 0.2 mg/mL bacitracin antibiotic, and 0.93 mg/mL aprotinin at pH 7.2 at 4 °C. The homogenizer used was a Janke & Kunkel IKA Ultra Turrax T25 homogenizer (IKA Werke GmbH & Co. KG, Staufen, Germany). The homogenates were then put into a centrifuge to be centrifuged at a speed of 16,000× g, for a period of 10 min, at 4 °C. The resulting membrane pellets were again suspended in a homogenizer in 1 mL of buffer B, which is buffer H containing BSA (0.1%) at a pH of 7.2 at 20 °C. After that, the membrane suspensions were diluted using buffer B and 50 μL aliquots of the suspensions and 20–25 pM of the radiolabeled ligand [^125I]-Tyr^0sauvagine with (test) and then without (positive control) the compounds to be evaluated at a single concentration of 100 nM.

human CRF1 receptors [2] = biological target: T1, human CRF1 receptors; assay: Competition binding of [125I]-Tyr0 sauvagine under equilibrium conditions (secondary assay); conditions: [125I]-Tyr0 sauvagine competition, HEK 293 membranes expressing CRF1 receptors
Experimental: In the second assay, the inhibitory effects measured by the lead compounds were compared to those of the standard drug antalarmin.
Figure 6 Competitive binding isotherms of compounds 2, 5, and 14 (a), compounds 10 and 23 (b), compounds 19 and 20 (c) and 21 and 22 (d) to human CRF1 receptors. Antalarmin was used as a standard drug.
In this competitive binding assay, different and increasing concentrations of the test compounds were used. The final volume of the tubes was adjusted to 0.2 mL using buffer B (the composition mentioned earlier). The test mixtures were then incubated at a temperature of 21 °C for a period of two hours. Then it was filtered through presoaked Whatman 934AH filter papers (in a solution of 0.3% polyethylene imine for 1 h at a temperature of 4 °C). The filter papers were then washed with a solution of 0.5 mL of ice-cold PBS containing 0.01% Triton X-100, and the washing process was repeated three times at pH 7.1. To measure the radioactivity, a gamma radiation counter was utilized. The quantity of membranes used was adjusted to make sure that the specific binding is always equal to or less than 10% of the total concentration of the added radiolabeled sauvagine. The specific [^125I]-Tyr^0-sauvagine binding was defined as the total binding minus the non-specific binding in the presence of 1000 nM of the standard antagonist Antalarmin. Non-linear regression analysis was used for data analysis, and Log IC50 values for the test compounds in comparison to the standard antagonist antalarmin were calculated by fitting the data from the competition studies into a one-site competition model. The statistical analysis was performed using Prism 4.0 (GraphPad Software, San Diego, CA, USA).
Statistical analysis was performed using Prism 4.0 (Graph Pad Software, San Diego, CA, USA). Non-linear regression analysis was used in the competitive binding studies. Log IC50 values were calculated by fitting the data from the competition studies to a one-site competition model.

CRF1R = test system: CRF1R; parameters: method as in PMID 7846062; conditions: cited from earlier work

inhibition at 0.1 µM (human CRF1 receptors [1]) | IC50 (human CRF1 receptors [2]; read-out: IC50) | IC50 (human CRF1 receptors [2]; Log IC50 as printed (negative sign), read-out: Log IC50 ± SE (converted)) | Compound | % inhibition of [125I]-Tyr0 sauvagine-specific binding (human CRF1 receptors [1]) | binding affinity to CRF1R relative to binding to CRF2R (CRF1R)
> 50% | 13.1 nM | – | CCCN(CCC)c1nc(C)nc2c1sc(=NC)n2-c1ccc(OC)cc1C [Compound 21, 7-(N,N-Dipropylamino)-2-(methylimino)-5-methyl-3-(2-methyl-4-methoxylphenyl)-2,3-dihydrothiazolo[4,5-d]pyrimidine] | – | –
> 50% | 41.1 nM | – | CCCC(CCC)Nc1nc(C)nc2c1sc(=NC)n2-c1ccc(C)cc1C [Compound 19, 7-(N-Heptan-4-yl)amino-2-(methylimino)-5-methyl-3-(2,4-dimethylphenyl)-2,3-dihydrothiazolo[4,5-d]pyrimidine] | – | –
> 50% | 111 nM | – | CCC(CC)Nc1nc(C)nc2c1sc(=NC)n2-c1ccc(OC)cc1C [Compound 23, 7-(N-Pentan-3-yl)amino-2-(methylimino)-5-methyl-3-(2-methyl-4-methoxylphenyl)-2,3-dihydrothiazolo[4,5-d]pyrimidine] | – | –
> 50% | 144 nM | – | CCCCN(CC)c1nc(C)nc2c1sc(=NC)n2-c1ccc(C)cc1C [Compound 14, 7-(N-Butyl-N-ethylamino)-2-(methylimino)-5-methyl-3-(2,4-dimethylphenyl)-2,3-dihydrothiazolo[4,5-d]pyrimidine] | – | –

More lines, now with the values behind:

Compound | inhibition at 0.1 µM (human CRF1 receptors [1]) | IC50 (human CRF1 receptors [2]; read-out: IC50) | IC50 (human CRF1 receptors [2]; Log IC50 as printed (negative sign), read-out: Log IC50 ± SE (converted)) | % inhibition of [125I]-Tyr0 sauvagine-specific binding (human CRF1 receptors [1]) | binding affinity to CRF1R relative to binding to CRF2R (CRF1R)
CN=c1sc2c(N(CCOC)CCOC)nc(C)nc2n1-c1ccc(C(C)C)cc1Br [Compound 10, 7-(N,N-Bis(2-methoxyethyl)amino)-2-(methylimino)-5-methyl-3-(2-bromo-4-isopropylphenyl)-2,3-dihydrothiazolo[4,5-d]pyrimidine] | > 50% | 31 nM | – | – | –
CCCN(CCC)c1nc(C)nc2c1sc(=NC)n2-c1ccc(Cl)cc1Cl [Compound 2, 7-(N,N-Dipropylamino)-2-(methylimino)-5-methyl-3-(2,4-dichlorophenyl)-2,3-dihydrothiazolo[4,5-d]pyrimidine] | > 50% | 6.1 nM | 6.03 nM | – | –
CCCCN(CC)c1nc(C)nc2c1sc(=NC)n2-c1ccc(OC)cc1C [Compound 20, 7-(N-Butyl-N-ethylamino)-2-(methylimino)-5-methyl-3-(2-methyl-4-methoxylphenyl)-2,3-dihydrothiazolo[4,5-d]pyrimidine] | > 50% | 9.16 nM | – | – | –
CCCN(CC1CC1)c1nc(C)nc2c1s/c(=N\C)n2-c1ccc(OC)cc1C [Compound 22, 7-(N-Propyl-N-(cyclopropylmethyl))amino-2-(methylimino)-5-methyl-3-(2-methyl-4-methoxylphenyl)-2,3-dihydrothiazolo[4,5-d]pyrimidine] | > 50% | 91.6 nM | – | significantly higher inhibitory effects than compounds 9 and 17 | –
CCCN(CC1CC1)c1nc(C)nc2c1s/c(=N\C)n2-c1ccc(Cl)cc1Cl [Compound 5, 7-(N-Propyl-N-(cyclopropylmethyl))amino-2-(methylimino)-5-methyl-3-(2,4-dichlorophenyl)-2,3-dihydrothiazolo[4,5-d]pyrimidine] | > 50% | 11.1 nM | – | significantly higher inhibitory effects than compounds 9 and 17 | –
CCCCCN(CCCCC)c1nc(C)nc2c1sc(=NC)n2-c1ccc(C(C)C)cc1Br [Compound 11, 7-(N,N-Dipentylamino)-2-(methylimino)-5-methyl-3-(2-bromo-4-isopropylphenyl)-2,3-dihydrothiazolo[4,5-d]pyrimidine] | – | – | – | reduced activity compared to compounds 10 and 13 | –
CCCCN(CC)c1nc(C)nc2c1c(C)c(C)n2-c1c(C)cc(C)cc1C [antalarmin, reference compound] | – | 16.6 nM | – | – | –
Corticotropin-releasing factor [CRF] | – | – | – | – | almost eight times higher
